Test results: patent US20240279338A1, “Combination Treatment of Cancer” (Ares Trading S.A., priority 2021, published 2024)

Assays:
MC38 cells = assay: CD73low MC38 syngeneic tumor model, tumor growth; assay type: in vivo, mice
Protocol: Female C57BL/6 mice were inoculated with 1×10^6 MC38 cells in the right lower flank and were treated with Compound A (300 mg/kg po, BID), bintrafusp alfa (24.6 mg/kg iv, days 0, 3, 6), Compound A+bintrafusp alfa, when average tumor volume reached approximately 70 mm^3. Vehicle (po, BID) and isotype control antibody injections (20 mg/kg iv, days 0, 3, 6) were used as controls. (A) Average tumor volumes with SEM, and (B) individual tumor volumes are presented. Tumor volume data were analyzed using two-way ANOVA followed by Tukey's multiple comparison test.
To determine whether combined treatment with the dual A2A/A2B receptor inhibitor “Compound A” ((S)-7-Oxa-2-aza-spiro[4.5]decane-2-carboxylic acid [7-(3,6-dihydro-2H-pyran-4-yl)-4-methoxy-thiazolo[4,5-c]pyridin-2-yl]-amide) and bintrafusp alfa can inhibit tumor growth in either CD73^hi or CD73^low models, tumor growth was monitored in […] syngeneic tumor models. Animals were inoculated with either CD73^hi tumor cells (4T1, E0771, or EMT6) or with CD73^low MC38, H22 or MBT2 tumor cells. For all tumor models, animals were treated with either 1) vehicle and isotype, 2) Compound A and isotype, 3) vehicle and bintrafusp alfa, or 4) Compound A and bintrafusp alfa. […]

CD73 KO 4T1 tumor cells = assay: CD73-KO 4T1 syngeneic tumor model, tumor growth; assay type: in vivo; settings: CD73 KO 4T1, female BALB/c mice; Day 18 post treatment initiation; Compound A 300 mg/kg po bid; bintrafusp alfa 24.6 mg/kg iv days 0, 3, 6
Protocol: Female BALB/c mice were inoculated with 1×10^5 CD73 KO 4T1 tumor cells into the right mammary fat pad and were treated with Compound A (300 mg/kg po, bid), bintrafusp alfa (24.6 mg/kg iv, days 0, 3, 6), Compound A+bintrafusp alfa, when average tumor volume reached approximately 60 mm^3. Vehicle (po, bid) and isotype control antibody injections (20 mg/kg iv, days 0, 3, 6) were used as controls. (A) Average tumor volumes with SEM, and (B) individual tumor volumes are presented. Tumor volume data were analyzed using two-way ANOVA followed by Tukey's multiple comparison test.
Further to the results of Example 3, tumor growth inhibition by the combined treatment with the dual A2A/A2B receptor inhibitor “Compound A” ((S)-7-Oxa-2-aza-spiro[4.5]decane-2-carboxylic acid [7-(3,6-dihydro-2H-pyran-4-yl)-4-methoxy-thiazolo[4,5-c]pyridin-2-yl]-amide) and bintrafusp alfa was examined in a syngeneic 4T1 tumor model, in which CD73 was knocked-out using GenCRISPR™ gene editing technology (GenScript USA, Inc). Efficacy of CD73 knockout in 4T1 tumor cells was confirmed by flow cytometry. Female BALB/c mice were inoculated into the right mammary fat pad with 1×10^5 CD73 KO 4T1 tumor cells and were treated with Compound A (300 mg/kg po, bid), bintrafusp alfa (24.6 mg/kg iv, days 0, 3, 6), Compound A+bintrafusp alfa, when average tumor volume reached approximately 60 mm^3. […]

[1] = tested on: human T cells co-cultured with MDA-MB-231 tumor cells; assay: Rescue of IFNγ secretion from EBV-specific human T cells co-cultured with MDA-MB-231 tumor cells in presence of NECA; assay type: cell-based; settings: Compound A 100 nM; bintrafusp alfa 1 μg/ml; 10 μM NECA; 74 hours of co-culture; T cells:tumor cells 0.5:1; ELISA
Protocol: Then 10 μM NECA was added to the corresponding groups and 1.3×10^4 of T cells in 100 μl volume were transferred per well of 96-well flat bottom plate with 2.6×10^4 cells/well of MDA-MB-231 tumor cells pre-loaded with EBV peptide (30 ng/ml, […], 21st Century) in 100 μl of RPM11640 media, supplemented with 10% FBS. The final ratio for T cells:MDA-MB-231 tumor cells=0.5:1. Cell culture supernatants were collected after 74 hours of co-culture, and IFNγ levels were measured using human IFNγ ELISA Kit (R&D Systems) according to manufacturer instructions. The percentage of IFNγ secretion rescue was calculated using following formula: 100%−(IFNγ in samples treated with NECA and Compound A alone or combination with bintrafusp alfa minus IFNγ in control sample)[…](IFNγ in samples with NECA minus IFNγ in control sample)*100%. Representative graph with the results shown as average of three samples per treatment group±SEM. P-values are calculated using one-way ANOVA Tukey comparison test. […]
Briefly, MDA-MB-231 tumor cells were seeded to the flat bottom 96-well plate at 2.6×10^4 cells/well (in 100 μl of RPMI1640 media, supplemented with 10% FBS) and loaded with EBV peptide (30 ng/ml, […], 21st Century). […] Cell culture supernatants were collected after 74 hours of co-culture, and IFNγ levels were measured using human IFNγ ELISA Kit (R&D Systems) according to manufacturer instructions. […]

Molecule: COc1ncc(C2=CCOCC2)c2sc(NC(=O)N3CC[C@@]4(CCCOC4)C3)nc12 [Compound A, (S)-7-Oxa-2-aza-spiro[4.5]decane-2-carboxylic acid [7-(3,6-dihydro-2H-pyran-4-yl)-4-methoxy-thiazolo[4,5-c]pyridin-2-yl]-amide]
- tumor growth inhibition (MC38 cells; MC38, Compound A 300 mg/kg po BID monotherapy): no tumor growth inhibition observed
- tumor growth inhibition, T/C (CD73 KO 4T1 tumor cells): 108%
- rescue of IFNγ secretion [1]: approx. 71%

Molecule: bintrafusp alfa: anti-PD-L1:TGFβRII fusion protein, CAS 1918149-01-5; human IgG1 antibody against PD-L1 fused to extracellular domain of human TGF-β receptor II
- tumor growth inhibition, T/C (MC38 cells; MC38, female C57BL/6 mice, Day 22 post treatment initiation, Compound A 300 mg/kg po BID, bintrafusp alfa 24.6 mg/kg iv days 0, 3, 6): 42.1%
- tumor growth inhibition, T/C (CD73 KO 4T1 tumor cells): 75.4%
- rescue of IFNγ secretion [1]: ~24%
